Test results as given in patent US4681872A (priority 1985, dated 1987).
≈ marks a conversion by molar mass, not a printed value. Where two headings read alike, the source gives them in different places.

Columns and labels:
[1] = system: Staph. epidermidis 3519 RARI; test: microbe, parasite or virus in culture; type: cell-based
Strep. bovis A5169 = test: antimicrobial spectrum, agar dilution MIC; type: cell-based; settings: BHI agar, 35°-37° C., 20-24 hours
Staph. aureus CMX 739A = test: antimicrobial spectrum, agar dilution MIC; type: cell-based; settings: BHI agar, 35°-37° C., 20-24 hours
Staph. aureus CMX 730A = test: antimicrobial spectrum, agar dilution MIC; type: cell-based; settings: BHI agar, 35°-37° C., 20-24 hours
Staph. aureus CYR 1162 = test: antimicrobial spectrum, agar dilution MIC; type: cell-based; settings: 35°-37° C., 20-24 hours
[2] = system: Staph. epidermidis CMX 728; test: antimicrobial spectrum, agar dilution MIC; type: cell-based; settings: 35°-37° C., 20-24 hours
[3] = system: Staph. saprophyticus ATCC 15305; test: antimicrobial spectrum, agar dilution MIC; type: cell-based; settings: 35°-37° C., 20-24 hours
Enterococcus GYR 1166 = test: microbe, parasite or virus in culture; type: cell-based
[4] = system: Strep. agalactiae CMX 633; test: antimicrobial spectrum, agar dilution MIC; type: cell-based; settings: 35°-37° C., 20-24 hours
[5] = system: Strep. pyogenes M79061-139; test: antimicrobial spectrum, agar dilution MIC; type: cell-based; settings: 35°-37° C., 20-24 hours
[6] = system: Strep. pyogenes M79061-140; test: antimicrobial spectrum, agar dilution MIC; type: cell-based; settings: 35°-37° C., 20-24 hours
[7] = system: Strep. pneumoniae CMX 635; test: antimicrobial spectrum, agar dilution MIC; type: cell-based; settings: 35°-37° C., 20-24 hours
Strep. pyogenes C203 = test: antimicrobial spectrum, agar dilution MIC; type: cell-based; settings: BHI agar, 35°-37° C., 20-24 hours
Bact. fragilis SFM2975-7 = test: antimicrobial spectrum, agar dilution MIC; type: cell-based; settings: 35°-37° C., 20-24 hours
Bact. vulgatus 792 = test: antimicrobial spectrum, agar dilution MIC; type: cell-based; settings: BHI agar, 35°-37° C., 20-24 hours
[8] = system: Bact. thetaiotamicron 3304; test: antimicrobial spectrum, agar dilution MIC; type: cell-based; settings: BHI agar, 35°-37° C., 20-24 hours
[9] = system: Bact. melaninogenicus ATCC 15930; test: antimicrobial spectrum, agar dilution MIC; type: cell-based; settings: 35°-37° C., 20-24 hours
[10] = system: Cl. perfringens SFBC 2026; test: microbe, parasite or virus in culture; type: cell-based
Strep. pyogenes = test: acute mouse protection test; type: in vivo, Swiss albino mice; settings: mice, dosed 1 and 5 hours post-infection, observed 7 days; for ED50: Streptococcus pyogenes, 168 h
Staph. aureus ATCC 6538P = test: antimicrobial spectrum, agar dilution MIC
Staph. aureus CMX 686B = test: antimicrobial spectrum, agar dilution MIC
Staph. aureus A5177 = test: antimicrobial spectrum, agar dilution MIC
[11] = system: Strep. agalactiae CMX 508; test: antimicrobial spectrum, agar dilution MIC
E. coli DC-2 = test: antimicrobial spectrum, agar dilution MIC
E. coli KNK 437 = test: antimicrobial spectrum, agar dilution MIC
Acinetobacter SP CMX 669 = test: antimicrobial spectrum, agar dilution MIC
Staph. aureus A-5278 = test: antimicrobial spectrum, agar dilution MIC
[12] = system: Strep. pneumoniae 78-008107; test: antimicrobial spectrum, agar dilution MIC
[13] = system: Bact. thetaiotamicron 106; test: antimicrobial spectrum, agar dilution MIC
Fusobacterium SP GS-10 = test: antimicrobial spectrum, agar dilution MIC
Cl. difficile ATCC 9689 = test: antimicrobial spectrum, agar dilution MIC
[14] = system: Propionibacterium acnes 132; test: antimicrobial spectrum, agar dilution MIC
[15] = system: Peptostrep. micros ATCC 33270; test: antimicrobial spectrum, agar dilution MIC
[16] = system: Peptostrep. anaerobius ATCC 27337; test: antimicrobial spectrum, agar dilution MIC
[17] = system: Veillonella parvula ATCC 10790; test: antimicrobial spectrum, agar dilution MIC

With `CC[C@H]1OC(=O)[C@H](C)[C@@H](O[C@H]2C[C@@](C)(OC)[C@@H](O)[C@H](C)O2)[C@H](C)[C@@H](O[C@@H]2O[C@H](C)C[C@H](N(C)C)[C@H]2O)[C@](C)(O)C[C@@H](C)C(=O)[C@H](C)[C@@H](O)[C@]1(C)O` [Erythromycin A, reference compound] the MIC ([1]; Staphylococcus epidermidis, 3519RARI) was 0.39 µg/mL (≈ 0.531 µM), the MIC (Strep. bovis A5169; Streptococcus equinus, read-out: MIC) was 0.01 µg/mL (≈ 0.0136 µM) and the MIC (Staph. aureus CMX 739A; Staphylococcus aureus, CMX739A, read-out: MIC) was 0.06 µg/mL (≈ 0.0818 µM). For the same compound, the MIC (Staph. aureus CMX 730A; Staphylococcus aureus, CMX730A, read-out: MIC) was 0.06 µg/mL (≈ 0.0818 µM), the MIC (Staph. aureus CYR 1162; Staphylococcus aureus, CYR1162, BHI agar, read-out: MIC) was 0.06 µg/mL (≈ 0.0818 µM) and the MIC ([2]; Staphylococcus epidermidis, CMX728, BHI agar, read-out: MIC) was 0.06 µg/mL (≈ 0.0818 µM). The MIC ([3]; Staphylococcus saprophyticus, ATCC15305, BHI agar, read-out: MIC) was 0.06 µg/mL (≈ 0.0818 µM), the MIC (Enterococcus GYR 1166; Enterococcus, GYR1166) was 1 µg/mL (≈ 1.36 µM) and the MIC ([4]; Streptococcus agalactiae, CMX633, BHI agar, read-out: MIC) was 0.015 µg/mL (≈ 0.0204 µM). It also gave an MIC ([5]; Streptococcus pyogenes, M79061139, BHI agar, read-out: MIC) of 0.015 µg/mL (≈ 0.0204 µM), an MIC ([6]; Streptococcus pyogenes, M79061140, BHI agar, read-out: MIC) of 0.002 µg/mL (≈ 0.00273 µM) and an MIC ([7]; Streptococcus pneumoniae, CMX635, BHI agar, read-out: MIC) of 0.008 µg/mL (≈ 0.0109 µM). It also gave an MIC (Strep. pyogenes C203; Streptococcus pyogenes, read-out: MIC) of 0.004 µg/mL (≈ 0.00545 µM), an MIC (Bact. fragilis SFM2975-7; Bacteroides fragilis, SFM29757, BHI agar, read-out: MIC) of 6.3 µg/mL (≈ 8.58 µM) and an MIC (Bact. vulgatus 792; Phocaeicola vulgatus, read-out: MIC) of 0.4 µg/mL (≈ 0.545 µM). For the same compound, the MIC ([8]; read-out: MIC) was 6.3 µg/mL (≈ 8.58 µM), the MIC ([9]; Prevotella intermedia, ATCC15930, BHI agar, read-out: MIC) was 0.4 µg/mL (≈ 0.545 µM) and the MIC ([10]; Clostridium perfringens, SFBC2026) was 1.6 µg/mL (≈ 2.18 µM). It also gave an ED50 (Strep. pyogenes; oral) of 50 mg/kg, an ED50 (Strep. pyogenes; sc, subcutaneous) of 3.5 mg/kg and an MIC (Staph. aureus ATCC 6538P; Staphylococcus aureus, ATCC6538P) of 0.39 µg/mL (≈ 0.531 µM). It also gave an MIC (Staph. aureus CMX 686B; Staphylococcus aureus, CMX686B) of 0.39 µg/mL (≈ 0.531 µM), an MIC (Staph. aureus A5177; Staphylococcus aureus, A5177) of 1.56 µg/mL (≈ 2.13 µM) and an MIC ([11]; Streptococcus agalactiae, CMX508) of 0.05 µg/mL (≈ 0.0681 µM). The MIC (E. coli DC-2; Escherichia coli, DC2) was 50 µg/mL (≈ 68.1 µM), the MIC (E. coli KNK 437; Escherichia coli, KNK437) was 100 µg/mL (≈ 136 µM) and the MIC (Acinetobacter SP CMX 669; Acinetobacter, SPCMX669) was 12.5 µg/mL (≈ 17 µM). It also gave an MIC (Staph. aureus A-5278; Staphylococcus aureus, A5278) of 128 µg/mL (≈ 174 µM), an MIC ([12]; Streptococcus pneumoniae, 78008107) of 128 µg/mL (≈ 174 µM) and an MIC [13] of 3.1 µg/mL (≈ 4.22 µM). The MIC (Fusobacterium SP GS-10; Fusobacterium, SPGS10) was 50 µg/mL (≈ 68.1 µM), the MIC (Cl. difficile ATCC 9689; Clostridioides difficile, ATCC9689) was 0.4 µg/mL (≈ 0.545 µM) and the MIC ([14]; Cutibacterium acnes, 132) was 0.05 µg/mL (≈ 0.0681 µM). The MIC [15] was 0.1 µg/mL (≈ 0.136 µM), the MIC [16] was 0.05 µg/mL (≈ 0.0681 µM) and the MIC ([17]; Veillonella parvula, ATCC10790) was 12.5 µg/mL (≈ 17 µM).

In the case of `CCC1OC(=O)C(C)C(OC2CC(C)(OC)CC(C)O2)C(C)C(OC2OC(C)CC(N(C)C)C2O)C(C)(O)CC(C)C(=O)C(C)C2OC(=O)OC12C` (stereo not drawn) [4"-deoxyerythromycin A 11,12-carbonate], the MIC ([1]; Staph. epidermidis 3519 RARI, BHI agar, 35°-37° C., 20-24 hours) is reported as “.1 µg/mL”, the MIC (Strep. bovis A5169) is reported as “.005 µg/mL” and the MIC (Staph. aureus CMX 739A) is reported as “.03 µg/mL”. The MIC (Staph. aureus CMX 730A) was “.03 µg/mL”, the MIC (Staph. aureus CYR 1162; BHI agar) was “.06 µg/mL” and the MIC ([2]; BHI agar) was “.03 µg/mL”. For the same compound, the MIC ([3]; BHI agar) was “.03 µg/mL”, the MIC (Enterococcus GYR 1166; Enterococcus GYR 1166, BHI agar, 35°-37° C., 20-24 hours) was “.12 µg/mL” and the MIC ([4]; BHI agar) was “.015 µg/mL”. For the same compound, the MIC ([5]; BHI agar) was “.015 µg/mL”, the MIC ([6]; BHI agar) was “.001 µg/mL” and the MIC ([7]; BHI agar) was “.008 µg/mL”. The MIC (Strep. pyogenes C203) was “.004 µg/mL”, the MIC (Bact. fragilis SFM2975-7; BHI agar) was “.8 µg/mL” and the MIC (Bact. vulgatus 792) was “.2 µg/mL”. For the same compound, the MIC [8] was 3.1 µg/mL (≈ 4.17 µM), the MIC ([9]; BHI agar) was “.1 µg/mL” and the MIC ([10]; Cl. perfringens SFBC 2026, BHI agar, 35°-37° C., 20-24 hours) was “.4 µg/mL”. For the same compound, the ED-50 (Strep. pyogenes; oral) was 8.9 mg/kg, the ED-50 (Strep. pyogenes; subcutaneous) was 4.0 mg/kg and the MIC (Staph. aureus ATCC 6538P; Staph. aureus ATCC 6538P, BHI agar, 35°-37° C., 20-24 hours) was “.1 µg/mL”. The MIC (Staph. aureus CMX 686B; Staph. aureus CMX 686B, BHI agar, 35°-37° C., 20-24 hours) was “.1 µg/mL”, the MIC (Staph. aureus A5177; Staph. aureus A5177, BHI agar, 35°-37° C., 20-24 hours) was “.39 µg/mL” and the MIC ([11]; Strep. agalactiae CMX 508, BHI agar, 35°-37° C., 20-24 hours) was “.02 µg/mL”. For the same compound, the MIC (E. coli DC-2; E. coli DC-2, BHI agar, 35°-37° C., 20-24 hours) was 25 µg/mL (≈ 33.6 µM), the MIC (E. coli KNK 437; E. coli KNK 437, BHI agar, 35°-37° C., 20-24 hours) was 25 µg/mL (≈ 33.6 µM) and the MIC (Acinetobacter SP CMX 669; Acinetobacter SP CMX 669, BHI agar, 35°-37° C., 20-24 hours) was 6.2 µg/mL (≈ 8.33 µM). It also gave an MIC (Staph. aureus A-5278; Staph. aureus A-5278, BHI agar, 35°-37° C., 20-24 hours) of 128 µg/mL (≈ 172 µM), an MIC ([12]; Strep. pneumoniae 78-008107, BHI agar, 35°-37° C., 20-24 hours) of 32 µg/mL (≈ 43 µM) and an MIC ([13]; Bact. thetaiotamicron 106, BHI agar, 35°-37° C., 20-24 hours) of 3.1 µg/mL (≈ 4.17 µM). The MIC (Fusobacterium SP GS-10; Fusobacterium SP GS-10, BHI agar, 35°-37° C., 20-24 hours) was 25 µg/mL (≈ 33.6 µM), the MIC (Cl. difficile ATCC 9689; Cl. difficile ATCC 9689, BHI agar, 35°-37° C., 20-24 hours) was “.4 µg/mL” and the MIC ([14]; Propionibacterium acnes 132, BHI agar, 35°-37° C., 20-24 hours) was “.05 µg/mL”. For the same compound, the MIC ([15]; Peptostrep. micros ATCC 33270, BHI agar, 35°-37° C., 20-24 hours) was “.05 µg/mL”, the MIC ([16]; Peptostrep. anaerobius ATCC 27337, BHI agar, 35°-37° C., 20-24 hours) was “.05 µg/mL” and the MIC ([17]; Veillonella parvula ATCC 10790, BHI agar, 35°-37° C., 20-24 hours) was 3.1 µg/mL (≈ 4.17 µM).
